Experimental data reported in patent US10385019B2, “Inhibitors of EGFR and methods of use thereof” (Dana-Farber Cancer Institute, Inc., priority 2015, dated 2019).
Like-named read-outs stand apart in the source and are kept apart here.

Legend:
Experiment in all cases: Ba/F3 cell proliferation model
Format in all cases: cell-based, murine
[1] = tested on: EGFR Parental Ba/F3 cell line; settings: Mus musculus, BaF3; compound alone
Excerpt: (§1) The selectivity between wild-type EGFR and EGFR containing one or more mutations as described herein can also be measured using cellular proliferation assays where cell proliferation is dependent on kinase activity. For example, murine Ba/F3 cells transfected with a suitable version of wild-type EGFR (such as VIII; containing a WT EGFR kinase domain), or Ba/F3 cells transfected with L858R/T790M, Del/T790M/L718Q, L858R/T790M/L718Q, L858R/T790M/C797S, Del/T790M/C797S, L858R/T790M/I941R, or Exon 19 deletion/T790M can be used.
(§2) Cell lines are plated in media. The compounds of the present disclosure are then serially diluted and transferred to the cells. Cell viability is measured via a luminescent readout. Data is analyzed by non-linear regression curve-fitting.
(§3) The EGFR mutant L858R, Del E746_A750, L858R/T790M, DelE746_A750/T790M, L858R/T790M/C797S and Del/T790M/C797S Ba/F3 cells have been previously described (Zhou, W., Ercan, D., Chen, L., Yun, C. H., Li, D., Capelletti, M., Cortot, A. B., Chirieac, L., Iacob, R. E., Padera, R., et al. “Novel mutant-selective EGFR kinase inhibitors against EGFR T790M,” Nature 462, (2009), 1070-1074). All cell lines were maintained in RPMI 1640 (Cellgro; Mediatech Inc., Herndon, Calif.) supplemented with 10% FBS 100 units/mL penicillin, 100 units/mL streptomycin, and 2 mM glutamine. L858R cells were maintained in ACL-4 media (Invitrogen, Carlsbad, Calif.) supplemented with 5% FBS, 100 units/mL penicillin, 100 units/mL streptomycin, and 2 mM glutamine. The EGFR I941R mutation was introduced via site directed mutagenesis using the Quick Change Site-Directed Mutagenesis kit (Stratagene; La Jolla, Calif.) according to the manufacturer's instructions. All constructs were confirmed by DNA sequencing. The constructs were shuttled into the retroviral vector JP 1540 using the BD Creator™ System (BD Biosciences). Ba/F3 cells were infected with retrovirus and according to standard protocols, as described previously (Zhou et al, Nature 2009). Stable clones were obtained by selection in puromycin (2 μg/ml).
(§4) Growth and inhibition of growth was assessed by MTS assay and was performed according to previously established methods (Zhou et al., Nature 2009). The MTS assay is a colorimetric method for determining the number of viable cells that is based on the bioreduction of MTS by cells to a formazan product that is soluble in cell culture medium and can be detected spectrophotometrically. Ba/F3 cells of different EGFR genotypes were exposed to treatment for 72 hours and the number of cells used per experiment determined empirically and has been previously established (Zhou et al., Nature 2009). All experimental points were set up in six wells and all experiments were repeated at least three times. […] The curves were fitted using a non-linear regression model with a sigmoidal dose response.

[2] = molecular target: Del/T790M Ba/F3 cell line (Homo sapiens, UniProt P00533, DEL746-750/T790M, cells depend on it)
Sequence of Del/T790M Ba/F3 cell line (P00533 with tags, fused parts or gaps DEL746-750/T790M): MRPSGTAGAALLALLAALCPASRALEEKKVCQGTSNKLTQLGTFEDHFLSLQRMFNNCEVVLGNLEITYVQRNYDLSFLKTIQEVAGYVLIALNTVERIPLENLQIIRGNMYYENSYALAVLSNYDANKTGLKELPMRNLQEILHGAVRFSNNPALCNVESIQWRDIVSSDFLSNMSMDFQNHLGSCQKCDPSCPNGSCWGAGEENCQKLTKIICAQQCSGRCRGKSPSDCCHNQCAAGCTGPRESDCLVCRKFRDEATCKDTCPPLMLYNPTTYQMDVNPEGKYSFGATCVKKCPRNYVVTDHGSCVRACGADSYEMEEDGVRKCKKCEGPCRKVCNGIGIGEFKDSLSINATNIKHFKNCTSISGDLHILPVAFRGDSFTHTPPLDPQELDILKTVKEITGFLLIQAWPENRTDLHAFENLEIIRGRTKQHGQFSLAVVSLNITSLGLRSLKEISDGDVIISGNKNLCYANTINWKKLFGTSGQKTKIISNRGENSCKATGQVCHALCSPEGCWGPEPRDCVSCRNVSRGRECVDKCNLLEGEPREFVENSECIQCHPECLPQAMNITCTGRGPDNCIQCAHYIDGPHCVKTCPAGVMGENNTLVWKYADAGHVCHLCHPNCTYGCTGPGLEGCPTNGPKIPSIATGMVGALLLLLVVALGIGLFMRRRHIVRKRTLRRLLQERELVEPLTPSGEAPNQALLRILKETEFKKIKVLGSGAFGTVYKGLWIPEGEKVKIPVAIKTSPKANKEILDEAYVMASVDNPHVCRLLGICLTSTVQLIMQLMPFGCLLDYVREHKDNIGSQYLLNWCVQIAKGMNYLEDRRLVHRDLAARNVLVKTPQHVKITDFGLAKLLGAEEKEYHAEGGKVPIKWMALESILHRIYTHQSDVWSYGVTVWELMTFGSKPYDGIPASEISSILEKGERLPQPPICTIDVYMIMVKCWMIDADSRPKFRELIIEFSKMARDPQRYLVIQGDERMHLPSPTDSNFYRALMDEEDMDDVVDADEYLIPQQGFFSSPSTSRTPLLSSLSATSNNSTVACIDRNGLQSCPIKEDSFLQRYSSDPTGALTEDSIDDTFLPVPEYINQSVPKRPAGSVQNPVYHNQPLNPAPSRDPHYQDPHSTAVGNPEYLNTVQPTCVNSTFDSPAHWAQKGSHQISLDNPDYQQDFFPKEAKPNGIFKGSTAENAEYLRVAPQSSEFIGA
Excerpt: as §1, §2, §3, §4

[3] = molecular target: EGFR T790M/L858R Ba/F3 cell line (Homo sapiens, UniProt P00533, T790M/L858R, cells depend on it); settings: for Activity (% inhibition): combined with cetuximab (% cetuximab, 1.0 μM drug concentration with 1.0 μg/mL cetuximab)
Sequence of EGFR T790M/L858R Ba/F3 cell line (P00533 whole entry T790M/L858R): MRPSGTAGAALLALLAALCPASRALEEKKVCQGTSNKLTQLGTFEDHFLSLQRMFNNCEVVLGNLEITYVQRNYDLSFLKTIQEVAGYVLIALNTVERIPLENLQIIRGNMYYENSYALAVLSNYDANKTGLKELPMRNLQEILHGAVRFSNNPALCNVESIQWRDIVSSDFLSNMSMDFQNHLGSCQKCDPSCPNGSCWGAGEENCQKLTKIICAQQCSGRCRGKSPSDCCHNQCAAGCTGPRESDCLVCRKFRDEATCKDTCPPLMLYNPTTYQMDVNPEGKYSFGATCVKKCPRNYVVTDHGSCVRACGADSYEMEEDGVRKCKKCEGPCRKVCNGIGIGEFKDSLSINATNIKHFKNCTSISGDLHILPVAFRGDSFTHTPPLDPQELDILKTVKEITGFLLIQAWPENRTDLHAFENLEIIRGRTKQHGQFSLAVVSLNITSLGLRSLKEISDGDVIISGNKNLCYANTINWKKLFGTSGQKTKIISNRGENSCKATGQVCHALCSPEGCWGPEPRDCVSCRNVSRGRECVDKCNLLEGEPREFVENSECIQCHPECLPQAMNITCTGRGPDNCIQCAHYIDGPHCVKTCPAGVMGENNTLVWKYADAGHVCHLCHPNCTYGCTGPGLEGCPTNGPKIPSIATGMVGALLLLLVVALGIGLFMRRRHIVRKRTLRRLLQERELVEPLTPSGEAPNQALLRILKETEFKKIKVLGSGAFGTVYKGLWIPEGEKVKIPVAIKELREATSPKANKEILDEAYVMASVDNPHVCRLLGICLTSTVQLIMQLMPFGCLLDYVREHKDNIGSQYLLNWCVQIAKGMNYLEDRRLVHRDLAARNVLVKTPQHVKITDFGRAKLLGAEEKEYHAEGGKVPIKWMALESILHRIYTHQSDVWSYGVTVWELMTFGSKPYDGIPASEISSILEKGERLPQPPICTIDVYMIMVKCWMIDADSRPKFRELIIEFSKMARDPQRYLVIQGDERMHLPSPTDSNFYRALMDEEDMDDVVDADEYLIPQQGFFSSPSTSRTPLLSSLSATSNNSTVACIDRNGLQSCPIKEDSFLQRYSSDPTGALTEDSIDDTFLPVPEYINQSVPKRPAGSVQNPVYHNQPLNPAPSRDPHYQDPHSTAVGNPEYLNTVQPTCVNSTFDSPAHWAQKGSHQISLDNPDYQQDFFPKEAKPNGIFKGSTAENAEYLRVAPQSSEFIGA
Procedure, shortened: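 Murine Ba/F3 cells made IL-3-independent by retroviral EGFR L858R/T790M, selected in puromycin (2 μg/ml) and kept in RPMI 1640 with 10% FBS. Cells were exposed to serially diluted compound for 72 h, with growth read by MTS assay in six wells per point and ≥3 repeats. Sigmoidal dose-response non-linear regression gave the values.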

[4] = compound alone, read-out: Del/T790M IC50
[5] = read-out: Del/T790M Cetuximab IC50, in combination with Cetuximab
[6] = compound alone, read-out: L858R/T790M IC50
[7] = read-out: L858R/T790M Cetuximab IC50, in combination with Cetuximab

GI50 [2, 4]	GI50 [2, 5]	GI50 [3, 6]	GI50 [3, 7]	Compound	IC50 [1]	Activity (% inhibition) [3]
1 to 10 µM	1 to 10 µM	> 10 µM	< 0.5 µM	O=C(Nc1nccs1)[C@@H](c1ccccc1)N1Cc2ccc(-c3ccccc3F)cc2C1=O [Compound I-75, (R)-2-(6-(2-fluorophenyl)-1-oxoisoindolin-2-yl)-2-phenyl-N-(thiazol-2-yl)acetamide]	> 10 µM	D (a % inhibition of between about 0% to about 25%)
> 10 µM	> 10 µM	1 to 10 µM	< 0.5 µM	O=C(Nc1nccs1)C(c1cccc(F)c1)N1Cc2ccc(-c3ccc4[nH]ccc4c3)cc2C1=O (stereo not shown) [Compound I-122, 2-(6-(1H-indol-5-yl)-1-oxoisoindolin-2-yl)-2-(3-fluorophenyl)-N-(thiazol-2-yl)acetamide]	1 to 10 µM	D (a % inhibition of between about 0% to about 25%)
> 10 µM	> 10 µM	1 to 10 µM	< 0.5 µM	O=C(Nc1nccs1)[C@H](c1ccccc1)N1Cc2ccc(-c3ccc4[nH]ccc4c3)cc2C1=O [Compound I-112, (S)-2-(6-(1H-indol-5-yl)-1-oxoisoindolin-2-yl)-2-phenyl-N-(thiazol-2-yl)acetamide]	> 10 µM	D (a % inhibition of between about 0% to about 25%)
> 10 µM	1 to 10 µM	1 to 10 µM	< 0.5 µM	O=C(Nc1nccs1)[C@@H](c1ccccc1)N1Cc2ccc(-c3ccc4[nH]ccc4c3)cc2C1=O [Compound I-66, (R)-2-(6-(1H-indol-5-yl)-1-oxoisoindolin-2-yl)-2-phenyl-N-(thiazol-2-yl)acetamide]	> 10 µM	D (a % inhibition of between about 0% to about 25%)
> 10 µM	> 10 µM	> 10 µM	< 0.5 µM	CC(C)(C)OC(=O)N1CCN(c2ccc(-c3ccc4c(c3)C(=O)N([C@@H](C(=O)Nc3nccs3)c3ccccc3)C4)c(F)c2)CC1 [Compound I-119, tert-butyl (R)-4-(3-fluoro-4-(3-oxo-2-(2-oxo-1-phenyl-2-(thiazol-2-ylamino)ethyl)isoindolin-5-yl)phenyl)piperazine-1-carboxylate]	> 10 µM	D (a % inhibition of between about 0% to about 25%)
> 10 µM	> 10 µM	> 10 µM	< 0.5 µM	O=C(Nc1nccs1)[C@@H](c1ccccc1)N1Cc2ccc(-c3ccc4c(c3)OCCO4)cc2C1=O [Compound I-65, (R)-2-(6-(2,3-dihydrobenzo[b] [1,4]dioxin-6-yl)-1-oxoisoindolin-2-yl)-2-phenyl-N-(thiazol-2-yl)acetamide]	> 10 µM	D (a % inhibition of between about 0% to about 25%)
1 to 10 µM	1 to 10 µM	1 to 10 µM	< 0.5 µM	O=C(Nc1nccs1)[C@@H](c1ccccc1)N1Cc2ccc(-c3ccc(CN4CCNCC4)cc3)cc2C1=O [Compound I-121, (R)-2-(1-oxo-6-(4-(piperazin-1-ylmethyl)phenyl)isoindolin-2-yl)-2-phenyl-N-(thiazol-2-yl)acetamide]	1 to 10 µM	D (a % inhibition of between about 0% to about 25%)
> 10 µM	> 10 µM	> 10 µM	< 0.5 µM	O=C(Nc1nccs1)[C@H](c1ccccc1)N1Cc2ccc(-c3ccccc3F)cc2C1=O [Compound I-113, (S)-2-(6-(2-fluorophenyl)-1-oxoisoindolin-2-yl)-2-phenyl-N-(thiazol-2-yl)acetamide]	> 10 µM	C (a % inhibition of between about 25% to about 50%)
1 to 10 µM	1 to 10 µM	1 to 10 µM	< 0.5 µM	CN(C)CCNC(=O)c1ccc(-c2ccc3c(c2)C(=O)N([C@@H](C(=O)Nc2nccs2)c2ccccc2)C3)cc1 [Compound I-81, (R)-N-(2-(dimethylamino)ethyl)-4-(3-oxo-2-(2-oxo-1-phenyl-2-(thiazol-2-ylamino)ethyl)isoindolin-5-yl)benzamide]	1 to 10 µM	D (a % inhibition of between about 0% to about 25%)
–	–	–	–	O=C(Nc1nncs1)[C@@H](c1ccccc1)N1Cc2ccccc2C1=O [Compound I-41, (R)-2-(1-oxoisoindolin-2-yl)-2-phenyl-N-(1,3,4-thiadiazol-2-yl)acetamide]	–	A (a % inhibition of about 75%)
–	–	–	–	O=C(Nc1ncccc1Cl)[C@@H](c1ccccc1)N1Cc2ccccc2C1=O [Compound I-57, (R)-N-(3-chloropyridin-2-yl)-2-(1-oxoisoindolin-2-yl)-2-phenylacetamide]	–	A (a % inhibition of about 75%)
–	–	–	–	CN(C)CCNC(=O)c1cccc(-c2ccc3c(c2)C(=O)N([C@@H](C(=O)Nc2nccs2)c2ccccc2)C3)c1 [Compound I-88, (R)-N-(2-(dimethylamino)ethyl)-3-(3-oxo-2-(2-oxo-1-phenyl-2-(thiazol-2-ylamino)ethyl)isoindolin-5-yl)benzamide]	–	C (a % inhibition of between about 25% to about 50%)
–	–	–	–	O=C(Nc1nccs1)C(c1cccc(F)c1)N1Cc2ccc(-c3ccc(CN4CCNCC4)cc3)cc2C1=O (stereo not shown) [Compound I-125, 2-(3-fluorophenyl)-2-(1-oxo-6-(4-(piperazin-1-ylmethyl)phenyl)isoindolin-2-yl)-N-(thiazol-2-yl)acetamide]	–	D (a % inhibition of between about 0% to about 25%)
–	–	–	–	O=C(Nc1nccs1)[C@@H](c1ccccc1)N1Cc2ccc(-c3ccc(C(=O)N4CCOCC4)cc3)cc2C1=O [Compound I-85, (R)-2-(6-(4-(morpholine-4-carbonyl)phenyl)-1-oxoisoindolin-2-yl)-2-phenyl-N-(thiazol-2-yl)acetamide]	–	D (a % inhibition of between about 0% to about 25%)
–	–	–	–	O=C(Nc1nccs1)[C@@H](c1ccccc1)N1Cc2ccc(C3=CCCCC3)cc2C1=O [Compound I-86, (R)-2-(6-(cyclohex-1-en-1-yl)-1-oxoisoindolin-2-yl)-2-phenyl-N-(thiazol-2-yl)acetamide]	–	B (a % inhibition of between about 50% to about 75%)
–	–	–	–	O=C(Nc1nccs1)[C@@H](c1ccccc1)N1Cc2cc(-c3ccccc3)ccc2C1=O [Compound I-105, (R)-2-(1-oxo-5-phenylisoindolin-2-yl)-2-phenyl-N-(thiazol-2-yl)acetamide]	–	B (a % inhibition of between about 50% to about 75%)
–	–	–	–	O=C(Nc1ncccc1F)[C@@H](c1ccccc1)N1Cc2ccccc2C1=O [Compound I-56, (R)-N-(3-fluoropyridin-2-yl)-2-(1-oxoisoindolin-2-yl)-2-phenylacetamide]	–	B (a % inhibition of between about 50% to about 75%)
–	–	–	–	O=C(Nc1nccs1)[C@@H](c1ccccc1)N1Cc2ccc(-c3ccc4cc[nH]c4c3)cc2C1=O [Compound I-67, (R)-2-(6-(1H-indol-6-yl)-1-oxoisoindolin-2-yl)-2-phenyl-N-(thiazol-2-yl)acetamide]	–	C (a % inhibition of between about 25% to about 50%)
–	–	–	–	O=C(Nc1nccs1)[C@@H](c1ccccc1)N1Cc2ccc(-c3ccncc3)cc2C1=O [Compound I-61, (R)-2-(1-oxo-6-(pyridin-4-yl)isoindolin-2-yl)-2-phenyl-N-(thiazol-2-yl)acetamide]	–	C (a % inhibition of between about 25% to about 50%)
